According to patent publication US20100179192A1, “USE OF NITRIC OXIDE RELEASING COMPOUNDS IN THE TREATMENT OF CHRONIC PAIN” (NICOX S.A., priority 2007, published 2010):

Tested on: hyperalgesic responses following chronic constriction injuries of the rat sciatic nerve
Experiment: Chronic constriction injury (CCI)-induced mechanical hyperalgesia in rats (modified Randall-Selitto method)
Assay type: in vivo
Details: for Contra-PWT30 min (paw withdrawal threshold, contralateral unlesioned paw) / Ipsi-PWT30 min (paw withdrawal threshold, CCI-lesioned ipsilateral paw) / PWT30 min: 30 min after treatment; for Contra-PWT30 min (paw withdrawal threshold, contralateral unlesioned paw) / Ipsi-PWT30 min (paw withdrawal threshold, CCI-lesioned ipsilateral paw): cut-off 240 g; for Ipsi-PWT30 min (paw withdrawal threshold, CCI-lesioned ipsilateral paw): 7 days after sciatic nerve ligation; for PWT30 min / PWT60 min: Table II, 175 μmol/kg sc each agent, alone or in combination; for PWT60 min: 60 min after treatment
Method: The efficacy of nitrooxyderivatives of antioxidant compounds of formula (I) in the treatment of neuropathic pain was evaluated in the model of hyperalgesic responses following chronic constriction injuries of the rat sciatic nerve. The pharmacological activity of the compounds of formula (I) was compared to that of the known analgesic drugs. The parent not-derivatized antioxidant drug was used as reference. The efficacy of the equimolar combination of compounds of formula (I) and analgesic drugs selected between the group of gabapentin, tiagabine and pregabalin was also evaluated, on the same experimental model.
The method described by Bennet and Xie (1988) was generally followed. Rats were anesthetized with chloral hydrate (380 mg/kg ip, Sigma). The right common sciatic nerve was exposed at the level of the middle of the high by blunt dissection through the biceps femoris. Proximal to the sciatic's trifurcation, about 12 mm of nerve was freed of adhering tissue and four ligatures (3/0 silk suture) were tied loosely around it with about 1 mm spacings. Ligatures were tied such that the diameter of the nerve was only barely constricted. […] The incision was closed in layers. The experiments were then carried out 1 week after surgery. Mechanical hyperalgesia was determined with an analgesimeter (Ugo Basile, Italy), using the modified Randall-Selitto method. Briefly, a conical stylus with a hemispherical tip was places upon the middle of hind paw dorsum. The animal was gently restrained and calibrated pressure of gradually increasing intensity was applied until the rat withdrew the hindpaw. Threshold pressure (g) of both hindpaws was determined every 15 minutes, with two measurements before the treatments (pretest), and from 15 to 60 minutes after treatment. An arbitrary cut-off value of 240 g was adopted.

SMILES | Contra-PWT30 min (paw withdrawal threshold, contralateral unlesioned paw) (175 μmol/kg sc) | Ipsi-PWT30 min (paw withdrawal threshold, CCI-lesioned ipsilateral paw) (175 μmol/kg sc) | PWT30 min | PWT60 min | sedative effect (175 μmol/kg sc, observed in CCI experiment)
NCC1(CC(=O)O)CCCCC1 [Gabapentin] | 84.3 ± 3.9 g | 75.1 ± 9.8 g | 75.1 ± 9.8 g | 37.6 ± 7.0 g | –
COc1cc(/C=C/C(=O)O)ccc1O [Ferulic acid] | 71.4 ± 11.1 g | 37.9 ± 15.5 g | – | – | –
COc1cc(/C=C/C(=O)OCCCCO[N+](=O)[O-])ccc1O [Ferulic acid 4-(nitrooxy)butyl ester, Ferulic Acid 4-(nitrooxy)butyl ester] | 98.5 ± 4.8 g | 76.3 ± 4.8 g | 76.3 ± 4.8 g | 37.5 ± 5.9 g | did not induce any appreciable sedative effect
